Active and inactive are the calls of the source.
Tests used:
[1] = THP-1 cell cytotoxicity, dose response, cytotoxicity control for non-replicating M. tuberculosis project (AID 489025); type: functional
cells = type: functional
[2] = Vero E6 cell cytotoxicity, dose response, cytotoxicity control for non-replicating M. tuberculosis project, secondary assay (AID 492998); type: functional, VeroE6; conditions: Vero C1008
Cytochrome P450 3A4 [3] = biological target: T1, Cytochrome P450 3A4 (Homo sapiens, UniProt P08684); conditions: Potency
T1 sequence (P08684 whole entry): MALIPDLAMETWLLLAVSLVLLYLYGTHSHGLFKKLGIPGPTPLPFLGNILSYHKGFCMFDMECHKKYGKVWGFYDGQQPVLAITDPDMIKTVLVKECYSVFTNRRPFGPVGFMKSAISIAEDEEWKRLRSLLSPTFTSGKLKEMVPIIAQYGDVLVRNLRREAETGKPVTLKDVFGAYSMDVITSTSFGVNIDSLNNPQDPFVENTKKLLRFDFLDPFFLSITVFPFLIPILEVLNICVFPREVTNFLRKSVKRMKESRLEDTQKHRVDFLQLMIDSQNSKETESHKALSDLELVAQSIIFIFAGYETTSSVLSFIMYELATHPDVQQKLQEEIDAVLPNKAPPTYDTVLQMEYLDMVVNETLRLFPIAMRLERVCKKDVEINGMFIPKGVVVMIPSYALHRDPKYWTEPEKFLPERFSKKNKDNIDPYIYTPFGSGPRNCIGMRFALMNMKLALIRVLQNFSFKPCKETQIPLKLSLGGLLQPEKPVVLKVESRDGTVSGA

Escherichia coli = experiment: microbe, parasite or virus in culture
[4] = DRD fibroblast viability loss – cell-based, non-viral oncogenic, luminescence, dose response (AID 1934); type: functional; conditions: Homo sapiens
BJ [5] = experiment: BJ-TERT-LT-ST fibroblast viability loss – cell-based, RAS-independent, luminescence, dose response (AID 1935); type: functional; conditions: Homo sapiens;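 also: BJ fibroblasts immortalized with TERT plus LT and ST oncogenes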
[6] = Luminescence Cell-Based Dose Retest to Confirm Inhibitors of Cancer Stem Cells. [Related pubchem assays (depositor defined):AID2717, AID2721]; type: functional; conditions: Homo sapiens
[7] = HEK-293T viability loss after treatment – luminescence, T-cell screen hits, cytotoxicity control for TCR NF-kB inhibitor project, dose response (AID 489026); type: functional, cell-based;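 also: cells exposed to compound about 14 hours before the viability readout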
BJ [8] = experiment: BJ-TERT fibroblast viability loss – cell-based, RAS-independent, luminescence, dose response (AID 1933); type: functional; conditions: Homo sapiens
BJ [9] = experiment: cells; type: functional, cell-based; conditions: Homo sapiens
[10] = fluconazole-exposed Candida albicans growth modulators – fluorescence, retest, confirmation (AID 2467); type: functional, cell-based
[11] = alpha-synuclein stem-loop luciferase translation blockers – H4 neuroglioma cells, luminescence, confirmation (AID 1988); type: functional, cell-based
[12] = biological target: T2, DNA repair protein RAD52 homolog (Homo sapiens, UniProt P43351); type: functional, biochemical
T2 sequence (P43351 whole entry): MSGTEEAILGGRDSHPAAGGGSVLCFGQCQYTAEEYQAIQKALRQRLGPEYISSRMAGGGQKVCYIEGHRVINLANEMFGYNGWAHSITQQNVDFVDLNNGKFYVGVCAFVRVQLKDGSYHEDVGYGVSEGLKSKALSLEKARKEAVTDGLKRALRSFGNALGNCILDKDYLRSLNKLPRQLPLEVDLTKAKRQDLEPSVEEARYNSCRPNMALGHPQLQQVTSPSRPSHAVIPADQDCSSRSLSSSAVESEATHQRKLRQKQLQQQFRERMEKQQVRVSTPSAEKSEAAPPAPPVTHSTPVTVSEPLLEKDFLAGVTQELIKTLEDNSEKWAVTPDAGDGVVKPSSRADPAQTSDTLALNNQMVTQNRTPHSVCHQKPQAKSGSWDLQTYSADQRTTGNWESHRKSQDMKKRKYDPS

[13] = luciferase reporter signal suppression in cells – H4 neuroglioma cells, luminescence, dose response (AID 1990); type: functional, cell-based
[14] = Luminescence Cell-Based Dose Response HTS to Identify Inhibitors of 5'UTR Stem-Loop Driven Prion Protein mRNA Translation in H4 Neuroglioblastoma Cells. [Related pubchem assays: 1827 (Project Summary), 1813 (Primary HTS)]; type: functional
[15] = NIH-3T3 fibroblast cytotoxicity, dose response, cytotoxicity control, cell-based, fluorescence, Alamar Blue, secondary assay (AID 2327); type: functional;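 also: NIH-3T3 mouse fibroblasts cultured with fluconazole at 8 µg/mL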
[16] = microbe, parasite or virus in culture; type: functional; conditions: Mycobacterium tuberculosis
SN12K1 = experiment: cells; type: functional; conditions: Homo sapiens
P388/ADR = experiment: cells; type: functional; conditions: Mus musculus
P388 = experiment: cells; type: functional; conditions: Mus musculus
Protein Wnt-3a = Protein Wnt-3a (Mus musculus, UniProt P27467); experiment: antagonism of Wnt3a pathway luciferase reporter – Wnt-LIGHT cells, luminescence, selectivity assay for Gli-SUFU antagonist project, dose response (AID 651570); type: functional; conditions: read-out: IC50_Mean;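 also: Wnt-LIGHT reporter cells stimulated with conditioned medium from Wnt3a-producing cells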
Sequence of Protein Wnt-3a (P27467 whole entry): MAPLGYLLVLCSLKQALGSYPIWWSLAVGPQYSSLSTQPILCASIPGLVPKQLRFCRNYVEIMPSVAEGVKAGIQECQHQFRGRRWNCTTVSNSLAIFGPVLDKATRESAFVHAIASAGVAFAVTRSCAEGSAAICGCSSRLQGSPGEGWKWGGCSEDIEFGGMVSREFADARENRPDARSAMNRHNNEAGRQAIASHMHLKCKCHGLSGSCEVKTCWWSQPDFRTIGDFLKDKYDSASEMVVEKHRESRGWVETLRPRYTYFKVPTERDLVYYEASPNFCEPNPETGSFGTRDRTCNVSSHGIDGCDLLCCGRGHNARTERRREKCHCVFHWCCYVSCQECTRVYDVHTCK

INS1 = experiment: INS-1E survival protection against cytokine death – cell-based, luminescence, retest, dose response (AID 449756); type: functional; conditions: Rattus norvegicus;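 also: cell death triggered by IL-1 beta plus TNF-alpha plus IFN-gamma mixture; protective hits raise ATP signal compared with cytokine alone wells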
[17] = loss of viability in HepG2 cells – cell-based, CellTiter-Glo, cherry-picked, cytotoxicity control for Shn3 inhibitor project, dose response (AID 624134); type: functional
[18] = reduction of Shn3 3'UTR-driven luciferase in osteoblasts – cell-based, Clone20 osteoblasts, firefly luciferase, cherry-picked, dose response (AID 624132); type: functional;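 also: firefly luciferase luminescence from reporter carrying the Shn3 3'UTR in osteoblasts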
[19] = non-specific 3'UTR reporter inhibition in Clone20-Shn3RL – cell-based, Renilla luciferase, cherry-picked, counter-screen for Shn3 inhibitor project, dose response (AID 624133); type: functional
[20] = system: Streptococcus sp. 'group A'; experiment: Streptococcus pyogenes SK(-)GAS viability under kanamycin – luminescence, BacTiterGlo, confirmation, counter-screen for streptokinase expression inhibitor project, dose response (AID 1900); type: functional, organism-based
Streptococcus = experiment: GAS UMAA2166 growth inhibition – luminescence, BacTiterGlo, counter-screen for streptokinase expression inhibitor project, dose response (AID 1915); type: functional, organism-based;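 also: potency for reduction of bacterial viability or growth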
[21] = viability loss in THP-1 monocytes – THP-1 cells, cytotoxicity control for Vif-APOBEC3G degradation inhibitor project, dose response (AID 1117359); type: functional; conditions: THP-1
Streptokinase A = biological target: T3, Streptokinase A (Streptococcus pyogenes serotype M1, UniProt P10520); experiment: viability-normalized secreted streptokinase activity reduction – plasminogen activation absorbance, OD405, dose response (AID 1914); type: functional, Streptococcus pyogenes M1 GAS;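 also: secreted streptokinase activity via plasminogen activation per viability signal from cell pellet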
T3 sequence (P10520 whole entry): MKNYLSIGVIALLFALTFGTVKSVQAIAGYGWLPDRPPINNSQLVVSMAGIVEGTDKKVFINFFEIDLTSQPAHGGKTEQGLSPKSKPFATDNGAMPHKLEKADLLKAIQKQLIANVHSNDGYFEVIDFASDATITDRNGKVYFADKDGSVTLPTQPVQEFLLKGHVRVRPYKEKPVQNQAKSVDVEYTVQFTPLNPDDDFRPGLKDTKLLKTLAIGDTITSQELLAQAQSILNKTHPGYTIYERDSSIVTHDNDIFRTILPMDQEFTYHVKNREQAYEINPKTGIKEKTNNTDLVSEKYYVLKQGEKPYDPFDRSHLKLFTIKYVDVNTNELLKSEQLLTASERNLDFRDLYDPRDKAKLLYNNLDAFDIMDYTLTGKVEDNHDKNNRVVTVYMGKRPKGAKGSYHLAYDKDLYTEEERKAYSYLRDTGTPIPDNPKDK

Cytochrome P450 3A4 [22] = biological target: T1, Cytochrome P450 3A4
Cytochrome P450 2C9 = Cytochrome P450 2C9 (Homo sapiens, UniProt P11712)
Sequence of Cytochrome P450 2C9 (P11712 whole entry): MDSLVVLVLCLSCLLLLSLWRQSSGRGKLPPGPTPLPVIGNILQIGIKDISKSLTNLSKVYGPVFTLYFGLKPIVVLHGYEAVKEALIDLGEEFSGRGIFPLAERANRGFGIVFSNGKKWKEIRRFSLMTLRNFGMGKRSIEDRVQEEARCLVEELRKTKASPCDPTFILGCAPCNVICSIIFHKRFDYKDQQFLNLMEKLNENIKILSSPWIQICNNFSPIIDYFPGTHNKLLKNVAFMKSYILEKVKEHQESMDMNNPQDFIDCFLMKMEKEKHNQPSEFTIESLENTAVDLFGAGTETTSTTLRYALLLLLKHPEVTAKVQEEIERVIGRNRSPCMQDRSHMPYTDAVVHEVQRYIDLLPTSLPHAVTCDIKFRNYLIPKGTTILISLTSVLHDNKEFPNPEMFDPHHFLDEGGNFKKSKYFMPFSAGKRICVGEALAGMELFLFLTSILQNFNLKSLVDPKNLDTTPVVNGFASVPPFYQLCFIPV

O=C(CCNc1ccc(F)cc1)c1ccco1
CC50 [1]: > 40 µM (active)
IC50 (cells): 13.6 µM (active)
CC50 [2]: 17.9 µM (active)

CC(=O)OC1CCC23CC1(C)CCC2C(C)(C)CC3OC(C)=O (centres undefined) [CLOVANEDIOL DIACETATE]
AC50 (Cytochrome P450 3A4 [3]): 15.8 µM (inconclusive)

COc1ccc(CCN2C(=O)CC(NNC(=O)c3ccc(F)cc3)C2=O)cc1OC (centres undefined)
AC50 (Escherichia coli): 20.9 µM (active)

Cc1ccsc1/C=N/NC(=O)c1cc(-c2ccncc2)nc2ccccc12
EC50 [4]: 2.94 µM (active)
EC50 (BJ [5]): 4.22 µM (inconclusive)
AC50 [6]: 0.168 µM (active)
IC50 [7]: 47.1 µM (inactive)
EC50 (BJ [8]): 2.93 µM (inconclusive)
EC50 (BJ [9]): 2.88 µM (active)

Clc1cccc(C(Cl)(Cl)Cl)n1 [NITRAPYRIN]
AC50 (Cytochrome P450 3A4 [3]): 12.6 µM (inconclusive)

CCCCS(=N)(=O)CCC(N)C(=O)O (centres undefined) [BUTHIONINE SULFOXIMINE]
AC50 (Cytochrome P450 3A4 [3]): 20 µM (inconclusive)

CCCn1c(C)nc2c(NC3CCN(Cc4ccccc4)C3)nc(C)nc21 (centres undefined)
AC50 (Cytochrome P450 3A4 [3]): 15.8 µM (inconclusive)

COc1ccc(-c2nc(CN3CCN(c4cc(C)nc(C)c4)CC3)c(C)o2)c2ccccc12
EC50 [10]: 3.22 µM (active)
EC50 [11]: 10.7 µM (active)
AC50 [12]: 7 µM (active)
EC50 [13]: 20.9 µM (active)
EC50 [14]: > 120 µM (not active)
EC50 [15]: > 160 µM (inactive)
CC50 [16]: 11.5 µM (active)

O=C(O)c1ccccc1/N=C/c1ccc(N(CCCl)CCCl)cc1
GI50 (SN12K1): > 100 µM (inactive)
GI50 (P388/ADR): 24.8 µM (inactive)
GI50 (P388): 19.2 µM (inactive)

O=C(Nc1cccc(C(F)(F)F)c1)C1CCN(S(=O)(=O)c2ccc(N3CCCC3=O)cc2)CC1
IC50 (Protein Wnt-3a): 6.98 µM (active)

Nc1ccc(Cl)cc1N
AC50 (Cytochrome P450 3A4 [3]): 7.94 µM (inconclusive)

O=C(NNc1ccnc2cc(Cl)ccc12)C1CCCCC1
AC50 (INS1): 1.42 µM (active)
IC50 [7]: > 80 µM (inactive)
AC50 [17]: 0.409 µM (active)
AC50 [18]: < 0.26 µM (active)
AC50 [19]: 1.39 µM (active)

Cc1nn(-c2ccccc2)c2sc(C(=O)N3CCc4ccccc4C3)cc12
EC50 [20]: 4.55 µM (active)
EC50 (Streptococcus): 14.6 µM (active)
CC50 [21]: > 40 µM (active)
EC50 (Streptokinase A): > 150 µM (not active)

Cn1c(=O)c(-c2cc(F)cc(F)c2)nc2cnc(Oc3ccccc3)nc21
AC50 (Cytochrome P450 3A4 [22]): inconclusive
AC50 (Cytochrome P450 2C9): 20 µM (inconclusive)

O=C(c1ccco1)N1CCC2(CC1)CN(c1ccccc1)C2
AC50 (Cytochrome P450 3A4 [22]): inconclusive
AC50 (Cytochrome P450 2C9): 25.1 µM (inconclusive)

Source: ChEMBL document CHEMBL1201862, “PubChem BioAssay data set” (2004)
